Experimental data taken from patent US9982017B2, “Synthetic apelin mimetics for the treatment of heart failure” (priority 2012, dated 2018).
Where a SMILES comes first, the peptide text is derived from it. Bridges are numbered along the chain shown (N, C = ends). [ ]: non-standard residue; d: D form. The star is where a group is joined. 3Pal = N[C@@H](Cc1cccnc1)C(=O)O; Myristoyl = CCCCCCCCCCCCCC(=O)*; pGlu = O=C1CC[C@@H](C(=O)O)N1; d(hCys) = N[C@H](CCS)C(=O)O; hCys = N[C@@H](CCS)C(=O)O; Nle = CCCC[C@H](N)C(=O)O; AEEA = NCCOCCOCC(=O)O; Aib = CC(C)(N)C(=O)O

Experiment: in vitro
Conditions: rat, not told, Surrogate activity-based Plasma stability t½

**Q.** Which half-life does the source give for CCCC[C@@H]1NC(=O)[C@@H]2CCCN2C(=O)CNC(=O)[C@H](CCCCN)NC(=O)[C@H](Cc2c[nH]cn2)NC(=O)[C@@H](NC(=O)[C@H](CC(C)C)NC(=O)[C@H](CCCNC(=N)N)NC(=O)[C@@H]2CCCN2C(=O)[C@H](CCCNC(=N)N)NC(=O)[C@@H]2CCC(=O)N2)CSSC[C@@H](C(=O)N[C@@H](CCC(=O)O)C(=O)O)NC1=O [Example 49, pE-R-P-R-L-C-H-K-G-P-Nle-C-E-OH] ([pGlu]RPRLCHKGP[Nle]CE-OH; disulfide 6-12) here?
**A.** > 16.7 h

**Q.** Which half-life does the source give for CCCC[C@@H]1NC(=O)[C@@H]2CCCN2C(=O)CNC(=O)[C@H](CCCCN)NC(=O)[C@H](Cc2c[nH]cn2)NC(=O)[C@@H](NC(=O)[C@H](CC(C)C)NC(=O)[C@H](CCCNC(=N)N)NC(=O)[C@@H]2CCCN2C(=O)[C@H](CCCNC(=N)N)NC(=O)[C@@H]2CCC(=O)N2)CSSC[C@@H](C(=O)O)NC1=O [Example 50, pE-R-P-R-L-C-H-K-G-P-Nle-C-OH] ([pGlu]RPRLCHKGP[Nle]C-OH; disulfide 6-12) here?
**A.** > 16.7 h

**Q.** With CCCC[C@@H]1NC(=O)[C@@H]2CCCN2C(=O)CNC(=O)[C@H](CCCCN)NC(=O)[C@H](Cc2ccccc2)NC(=O)[C@@H](NC(=O)[C@H](CC(C)C)NC(=O)[C@H](CCCNC(=N)N)NC(=O)[C@@H]2CCCN2C(=O)[C@H](CCCNC(=N)N)NC(=O)[C@@H]2CCC(=O)N2)CCCCNC(=O)[C@@H](Cc2ccccc2)NC1=O [Example 6, pE-R-P-R-L-K-F-K-G-P-Nle-f] ([pGlu]RPRLKFKGP[Nle][dF]; lactam 6-C) as the molecule, how does the half-life read?
**A.** 1.95 h

**Q.** Which half-life does the source give for CCCC[C@@H]1NC(=O)[C@@H]2CCCN2C(=O)CNC(=O)[C@H](CCCCN)NC(=O)[C@H](Cc2cnc[nH]2)NC(=O)[C@@H](NC(=O)[C@H](CC(C)C)NC(=O)[C@H](CCCNC(=N)N)NC(=O)[C@@H]2CCCN2C(=O)[C@H](CCCNC(=N)N)NC(=O)[C@@H]2CCC(=O)N2)CSC/C(=N/OCC(=O)NCCNC(=O)COCCOCCNC(=O)CCC(NC(=O)CCCCCCCCCCCCCCCCC(=O)O)C(=O)O)CSC[C@@H](C(=O)N[C@@H](Cc2ccccc2)C(=O)O)NC1=O (stereo partly shown) [Example 66] here?
**A.** 9.93 h

**Q.** For CCCC[C@@H]1NC(=O)[C@@H]2CCCN2C(=O)[C@H](CCCNC(=N)N)NC(=O)[C@H](CCCCN)NC(=O)[C@H](Cc2c[nH]cn2)NC(=O)[C@@H](NC(=O)[C@H](CC(C)C)NC(=O)[C@H](CCCNC(=N)N)NC(=O)[C@@H]2CCCN2C(=O)[C@H](CCCNC(=N)N)NC(=O)[C@@H]2CCC(=O)N2)CSSC[C@@H](C(=O)N[C@@H](Cc2ccccc2)C(=O)O)NC1=O [Example 45, pE-R-P-R-L-C-H-K-R-P-Nle-C-F-OH] ([pGlu]RPRLCHKRP[Nle]CF-OH; disulfide 6-12), which half-life is on record?
**A.** 2.79 h

**Q.** With CCCC[C@@H]1NC(=O)[C@@H]2CCCN2C(=O)[C@H](CC(C)C)NC(=O)[C@H](CCCCN)NC(=O)[C@H](Cc2c[nH]cn2)NC(=O)[C@@H](NC(=O)[C@H](CC(C)C)NC(=O)[C@H](CCCNC(=N)N)NC(=O)[C@@H]2CCCN2C(=O)[C@H](CCCNC(=N)N)NC(=O)[C@@H]2CCC(=O)N2)CSSC[C@@H](C(=O)N[C@@H](Cc2ccccc2)C(=O)O)NC1=O [Example 44, pE-R-P-R-L-C-H-K-L-P-Nle-C-F-OH] ([pGlu]RPRLCHKLP[Nle]CF-OH; disulfide 6-12) as the molecule, how does the half-life read?
**A.** 14.3 h

**Q.** With CCCC[C@@H]1NC(=O)[C@@H]2CCCN2C(=O)CNC(=O)[C@H](CCCCN)NC(=O)[C@H](Cc2c[nH]cn2)NC(=O)[C@@H](NC(=O)[C@H](CC(C)C)NC(=O)[C@H](CCCNC(=N)N)NC(=O)[C@@H]2CCCN2C(=O)[C@H](CCCNC(=N)N)NC(=O)[C@@H]2CCC(=O)N2)CCSSCC[C@@H](C(=O)N[C@@H](Cc2ccccc2)C(=O)O)NC1=O [Example 52, pE-R-P-R-L-hC-H-K-G-P-Nle-hC-F-OH] ([pGlu]RPRL[hCys]HKGP[Nle][hCys]F-OH; disulfide 6-12) as the molecule, how does the half-life read?
**A.** 13 h

**Q.** Which half-life does the source give for CCCC[C@@H]1NC(=O)[C@@H]2CCCN2C(=O)CNC(=O)[C@H](CCCCN)NC(=O)[C@H](Cc2c[nH]cn2)NC(=O)[C@@H](NC(=O)[C@H](CC(C)C)NC(=O)[C@H](CCC(=O)O)NC(=O)[C@@H]2CCCN2C(=O)[C@H](CCCNC(=N)N)NC(=O)[C@@H]2CCC(=O)N2)CSSC[C@@H](C(=O)N[C@@H](Cc2ccccc2)C(=O)O)NC1=O [Example 40, pE-R-P-E-L-C-H-K-G-P-Nle-C-F-OH] ([pGlu]RPELCHKGP[Nle]CF-OH; disulfide 6-12) here?
**A.** > 16.7 h

**Q.** For CCCC[C@@H]1NC(=O)[C@@H]2CCCN2C(=O)CNC(=O)[C@H](CCCCN)NC(=O)[C@H](Cc2c[nH]cn2)NC(=O)[C@H](NC(=O)[C@H](CC(C)C)NC(=O)[C@H](CCCNC(=N)N)NC(=O)[C@@H]2CCCN2C(=O)[C@H](CCCNC(=N)N)NC(=O)[C@@H]2CCC(=O)N2)CCSSCC[C@H](C(=O)N[C@@H](Cc2ccccc2)C(=O)O)NC1=O [Example 55, pE-R-P-R-L-(D-hC)-H-K-G-P-Nle-(D-hC)-F-OH] ([pGlu]RPRL[d(hCys)]HKGP[Nle][d(hCys)]F-OH; disulfide 6-12), which half-life is on record?
**A.** > 16.7 h

**Q.** Which half-life does the source give for CCCCCCCCCCCCCC(=O)NCCOCCOCC(=O)NCCOCCOCC(=O)NCCOCCOCC(=O)NCCOCCOCC(=O)N[C@@H](CCC(N)=O)C(=O)N[C@@H](CCCNC(=N)N)C(=O)N1CCC[C@H]1C(=O)N[C@@H](CCCNC(=N)N)C(=O)N[C@@H](CC(C)C)C(=O)N[C@H]1CSSC[C@@H](C(=O)N[C@H](Cc2ccccc2)C(=O)O)NC(=O)[C@H](CCCC)NC(=O)[C@@H]2CCCN2C(=O)CNC(=O)[C@H](CCCCN)NC(=O)[C@H](Cc2c[nH]cn2)NC1=O [Example 60, Myristoyl-O2Oc-O2Oc-O2Oc-O2Oc-Q-R-P-R-L-C-H-K-G-P-Nle-C-f-OH] ({Myristoyl-AEEA-AEEA-AEEA-AEEA}-QRPRLCHKGP[Nle]C[dF]-OH; disulfide 6-12) here?
**A.** > 16.7 h

**Q.** For CCCC[C@@H]1NC(=O)[C@@H]2CCCN2C(=O)CNC(=O)[C@H](CCCCN)NC(=O)[C@H](Cc2c[nH]cn2)NC(=O)[C@@H](NC(=O)[C@H](CC(C)C)NC(=O)[C@H](CCCNC(=N)N)NC(=O)[C@@H]2CCCN2C(=O)[C@H](CCCNC(=N)N)NC(=O)[C@@H]2CCC(=O)N2)CSSC[C@@H](C(N)=O)NC1=O [Example 63, pE-R-P-R-L-C-H-K-G-P-Nle-C-NH2] ([pGlu]RPRLCHKGP[Nle]C-NH2; disulfide 6-12), which half-life is on record?
**A.** 11.7 h

**Q.** For CCCC[C@@H]1NC(=O)[C@@H]2CCCN2C(=O)CNC(=O)[C@H](CCCCN)NC(=O)[C@H](Cc2c[nH]cn2)NC(=O)[C@@H](NC(=O)[C@H](CC(C)C)NC(=O)[C@H](Cc2ccccc2)NC(=O)[C@@H]2CCCN2C(=O)[C@H](CCCNC(=N)N)NC(=O)[C@@H]2CCC(=O)N2)CSSC[C@@H](C(=O)N[C@@H](Cc2ccccc2)C(=O)O)NC1=O [Example 36, pE-R-P-F-L-C-H-K-G-P-Nle-C-F-OH] ([pGlu]RPFLCHKGP[Nle]CF-OH; disulfide 6-12), which half-life is on record?
**A.** > 16.7 h

**Q.** For CCCC[C@@H]1NC(=O)[C@@H]2CCCN2C(=O)CNC(=O)[C@H](CCCCN)NC(=O)[C@H](Cc2ccccc2)NC(=O)[C@@H](NC(=O)[C@H](CC(C)C)NC(=O)[C@H](CCCNC(=N)N)NC(=O)[C@@H]2CCCN2C(=O)[C@H](CCCNC(=N)N)NC(=O)[C@@H]2CCC(=O)N2)CSSC[C@@H](C(=O)N[C@@H](Cc2ccccc2)C(=O)O)NC1=O [Example 15, pE-R-P-R-L-C-F-K-G-P-Nle-C-F-OH] ([pGlu]RPRLCFKGP[Nle]CF-OH; disulfide 6-12), which half-life is on record?
**A.** 3.01 h

**Q.** Which half-life does the source give for CCCC[C@@H]1NC(=O)[C@@H]2CCCN2C(=O)CNC(=O)[C@H](CCCCN)NC(=O)[C@H](Cc2c[nH]cn2)NC(=O)[C@@H](NC(=O)[C@H](CC(C)C)NC(=O)[C@H](CCCNC(=N)N)NC(=O)[C@@H]2CCCN2C(=O)[C@H](CCC(=O)O)NC(=O)[C@@H]2CCC(=O)N2)CSSC[C@@H](C(=O)N[C@@H](Cc2ccccc2)C(=O)O)NC1=O [Example 32, pE-E-P-R-L-C-H-K-G-P-Nle-C-F-OH] ([pGlu]EPRLCHKGP[Nle]CF-OH; disulfide 6-12) here?
**A.** > 16.7 h

**Q.** With CCCC[C@@H]1NC(=O)[C@@H]2CCCN2C(=O)[C@H](CC(=O)O)NC(=O)[C@H](CCCCN)NC(=O)[C@H](Cc2c[nH]cn2)NC(=O)[C@@H](NC(=O)[C@H](CC(C)C)NC(=O)[C@H](CCCNC(=N)N)NC(=O)[C@@H]2CCCN2C(=O)[C@H](CCCNC(=N)N)NC(=O)[C@@H]2CCC(=O)N2)CSSC[C@@H](C(=O)N[C@@H](Cc2ccccc2)C(=O)O)NC1=O [Example 39, pE-R-P-R-L-C-H-K-D-P-Nle-C-F-OH] ([pGlu]RPRLCHKDP[Nle]CF-OH; disulfide 6-12) as the molecule, how does the half-life read?
**A.** 10.9 h

**Q.** For CCCC[C@@H]1NC(=O)[C@@H]2CCCN2C(=O)CNC(=O)[C@H](CCCCN)NC(=O)[C@H](Cc2c[nH]cn2)NC(=O)[C@H](NC(=O)[C@H](CC(C)C)NC(=O)[C@H](CCCNC(=N)N)NC(=O)[C@@H]2CCCN2C(=O)[C@H](CCCNC(=N)N)NC(=O)[C@@H]2CCC(=O)N2)CSSC[C@H](C(=O)N[C@@H](Cc2ccccc2)C(=O)O)NC1=O [Example 57, pE-R-P-R-L-c-H-K-G-P-Nle-c-F-OH] ([pGlu]RPRL[dC]HKGP[Nle][dC]F-OH; disulfide 6-12), which half-life is on record?
**A.** > 16.7 h

**Q.** Which half-life does the source give for CC(C)C[C@H](NC(=O)[C@H](CCCNC(=N)N)NC(=O)[C@@H]1CCCN1C(=O)[C@H](CCCNC(=N)N)NC(=O)[C@@H]1CCC(=O)N1)C(=O)N[C@H]1CSSC[C@@H](C(=O)N[C@@H](Cc2ccccc2)C(=O)O)NC(=O)[C@H](Cc2cccnc2)NC(=O)[C@@H]2CCCN2C(=O)CNC(=O)[C@H](CCCCN)NC(=O)[C@H](Cc2c[nH]cn2)NC1=O [Example 47, pE-R-P-R-L-C-H-K-G-P-(3-PyA)-C-F-OH] ([pGlu]RPRLCHKGP[3Pal]CF-OH; disulfide 6-12) here?
**A.** 6.98 h

**Q.** Which half-life does the source give for CCCC[C@@H]1NC(=O)[C@@H]2CCCN2C(=O)CNC(=O)[C@H](CCCCN)NC(=O)C(C)(C)NC(=O)[C@@H](NC(=O)[C@H](CC(C)C)NC(=O)[C@H](CCCNC(=N)N)NC(=O)[C@@H]2CCCN2C(=O)[C@H](CCCNC(=N)N)NC(=O)[C@@H]2CCC(=O)N2)CSSC[C@@H](C(=O)N[C@H](Cc2ccccc2)C(=O)O)NC1=O [Example 10, pE-R-P-R-L-C-Aib-K-G-P-Nle-C-f-OH] ([pGlu]RPRLC[Aib]KGP[Nle]C[dF]-OH; disulfide 6-12) here?
**A.** > 16.7 h

**Q.** Which half-life does the source give for CCCC[C@@H]1NC(=O)[C@@H]2CCCN2C(=O)CNC(=O)[C@H](CCCCN)NC(=O)[C@H](Cc2c[nH]cn2)NC(=O)[C@@H](NC(=O)[C@H](CC(C)C)NC(=O)[C@H](CCCNC(=N)N)NC(=O)[C@@H]2CCCN2C(=O)[C@H](CCCNC(=N)N)NC(=O)[C@@H]2CCC(=O)N2)CSSCC[C@H](C(=O)N[C@@H](Cc2ccccc2)C(=O)O)NC1=O [Example 54, pE-R-P-R-L-C-H-K-G-P-Nle-(D-hC)-F-OH] ([pGlu]RPRLCHKGP[Nle][d(hCys)]F-OH; disulfide 6-12) here?
**A.** > 16.7 h
